Measured values from US6346620B1, “Methods for preparation of 2-(4-(4-(4,5-dichloro-2-methylimidazol-1-yl)butyl)-1-piperazinyl)-5-fluoropyrimidine and salts thereof” (Laboratories del Dr. Esteve S.A., priority 1997, dated 2002).

What was measured:
[1] = test system: nausea induced by copper sulfate; assay: Antiemetic activity: nausea/vomiting induced by copper sulfate in ferrets; type: in vivo; settings: ferret; for Number of episodes of nausea/vomiting: copper sulfate 100 mg/kg intragastric, 30 min observation
Description: (§1) The compounds obtained in the invention are studied with regard to their effects on nausea in ferrets according to a method described by Costall et al. (Neuropharmacology, 1986, 25, 959-961). Ferrets of both sexes (0.7-1.4 kg) are individually housed at 21±1° C. and fed normally. The compound of the example or a vehicle is subsequently administered to them subcutaneously as pretreatment 15 minutes before the administration of copper sulfate (CuSO4.5H2O; 100 mg/kg by the intragastric route) or cisplatin (10 mg/kg i.v. by means of a permanent jugular cannula). The animals are observed at the beginning of vomiting and then for 30 minutes (copper sulfate) or 240 minutes (cisplatin). Vomiting is characterized by rhythmic abdominal contractions, either associated with the expulsion of solid or liquid matter (vomit) or not associated with the passage of matter via the mouth (nausea). The number of episodes and nausea or vomiting are recorded.

[2] = test system: nausea caused by the movement (travel sickness); assay: Travel sickness in the shrew (Suncus murinus); type: in vivo; settings: for Number of episodes of nausea/vomiting: motion 1 hertz 4 cm for 20 min
Source text: The compound of Example 3 is studied with regard to its effect on travel sickness, (vertigo) induced in, Suncus murinus according to the method described by N. Matsuki et al. (“Mechanisms and Control of Emesis”, John Libbey Emotex, 1992, 233, 323-329). Males of the species Suncus murinus weighing 58-72 grams are housed in groups of 3 and are allowed free access to solid food and to water. One hour before the test, they are presented with cat food in their housing cage. At the beginning of the test, the animals receive the treatment with the test product by the i.p. route. After 30 minutes, they are placed individually in the test boxes (15×15×10 cm). The boxes are connected to a motor which displaces them over several wheels forward and backward with a frequency which induces nausea in them (travel sickness). This frequency is 1 hertz with an amplitude of displacement of 4 cm. The animals are left in the test boxes for 30 minutes, in order for them to become used to their surroundings, and then the active movement of the cages is begun for 20 minutes, in order to determine the presence or the absence of nausea (without passage of matter from the digestive tract) and of vomiting (with passage of matter from the digestive tract).

[3] = molecular target: T1, 5HT1A serotonin receptor (Rattus norvegicus, UniProt P19327); assay: Binding to the 5HT1A serotonin receptor (rat hippocampus homogenate, [3H]-8-HO-DPAT); settings: 15 minutes at 37° C., read-out: Ki (inhibition constant)
T1 construct: A rat hippocampus homogenate is used; from tissue; host or cells: rat hippocampus homogenate
T1 sequence (P19327 1-422): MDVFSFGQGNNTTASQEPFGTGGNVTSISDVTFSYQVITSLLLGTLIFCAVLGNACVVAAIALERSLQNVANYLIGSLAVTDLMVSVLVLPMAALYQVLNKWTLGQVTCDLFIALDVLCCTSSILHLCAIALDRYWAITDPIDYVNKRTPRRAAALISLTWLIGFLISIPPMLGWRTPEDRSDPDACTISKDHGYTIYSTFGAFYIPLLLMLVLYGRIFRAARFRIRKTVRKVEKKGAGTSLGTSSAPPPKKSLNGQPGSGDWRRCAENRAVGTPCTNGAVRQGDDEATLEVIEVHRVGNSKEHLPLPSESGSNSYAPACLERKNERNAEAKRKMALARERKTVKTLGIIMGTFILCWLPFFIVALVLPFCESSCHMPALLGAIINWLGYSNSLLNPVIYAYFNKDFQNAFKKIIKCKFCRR
Description: A rat hippocampus homogenate is used, a modification of the method of S. J. Peroutka (Neurochem., 1986, 47, 529) being followed. [^3H]-8-HO-DPAT is used as radioligand and serotonin is used to measure the nonspecific binding. The incubation time is 15 minutes at a temperature of 37° C. The radioligand bonded to the protein is separated by filtration through glass fiber filters and the radioactivity retained on the filter is determined by liquid scintillation. The inhibitIon constant (Ki, nM) is calculated by nonlinear regression analysis using the EBDA/LIGAND program (Munson and Rodbard, Analytical Biochemistry, 1980, 107, 220).

[4] = test system: gastric acid secretion; assay: Inhibitory activity with regard to gastric acid secretion (Shay procedure); type: in vivo; settings: Rattus norvegicus, intraduodenal; male Wistar rats, pylorus ligation, i.d., 2 hours; read-out: ED50 (inhibition of gastric acid secretion)
Description: This activity is determined by means of the Shay procedure (H. Shay et al., Gastroenterology, 1945, 5, 43; Visscher et al., J. Pharmac. Exp. Ther., 1954, 110, 188).
Male Wistar rats weighing from 200 to 250 g are used in this test, which rats are deprived of food up to the day preceding the test, with free access to water. Batches of 4 animals each are used, at least.
The rats are anesthetized with ethyl ether, a laparotomy is performed on them and their pylori are tied, and then an abdominal incision is made. The products are administered intraduodenally (i.d.) before suturing the abdominal incision. The dose administered in the first test is 40 mg/kg and then the median effective dose (ED50) is determined. The vehicle used is gum arabic at 5% w/v in doubly-distilled water.
Two hours after ligating the pylori, the rats are sacrificed by prolonged anesthesia with ethyl ether and the volume of gastric juice is measured. The total acidity is determined by means of a pH meter equipped with an automatic burette. For each product and for each dose tested, the percentage of inhibition of gastric acid secretion is determined with respect to a reference batch.

[5] = test system: nausea induced by cisplatin; assay: Antiemetic activity: nausea/vomiting induced by cisplatin in ferrets; type: in vivo; settings: ferret; for Number of episodes of nausea/vomiting: cisplatin 10 mg/kg i.v., 240 min observation
Description: as §1

[6] = test system: conditioned avoidance response; assay: Test of conditioned avoidance response (C.A.R.); type: in vivo; settings: Rattus norvegicus, po; male Wistar rats, p.o., 45 minutes before the study; read-out: ED50 (suppression of conditioned avoidance response)
Description: In this test, use is made of male Wistar rats weighing 200 g trained to leap a barrier in a Letica shuttle box (references LI 910 and LI 2700) during the 30 seconds which follow their introduction into the box. Products having an anxiolytic or tranquilizing activity suppress the conditioned avoidance response. Training: first day, 11 tests at intervals of 3 minutes. Electric shock in the paws at 30 seconds (5 mA, 0.1 s, 10 s). Second and third days: two daily tests, only with the selected rats {some of the grades of the first day (except the first test) >14}. Day of the test: groups formed by the selected rats. Oral administration of the product or vehicle 45 minutes before the beginning of the study.

Cc1nc(Cl)c(Cl)n1CCCCN1CCN(c2ncc(F)cn2)CC1.O=C(O)CC(O)(CC(=O)O)C(=O)O [Example 3, 2-{4-[4-(4,5-dichloro-2-methylimidazol-1-yl)butyl]piperazin-1-yl}-5-fluoropyrimidine citrate]
Number of episodes of nausea/vomiting ([1]; 0.001 mg/kg s.c.): 7.4 ± 1.2 (NS) | Number of episodes of nausea/vomiting ([1]; 0.01 mg/kg s.c.): 3.2 ± 0.6 (*) | Number of episodes of nausea/vomiting ([1]; 0.1 mg/kg s.c.): 1.0 ± 0.2 (*) | Number of episodes of nausea/vomiting ([1]; 1 mg/kg s.c.): 1.7 ± 0.3 (*) | Effect on nausea induced by copper sulfate (in words) ([1]; s.c.): capable of altering the nausea induced by copper sulfate | Effect on nausea caused by the movement (travel sickness) (in words) ([2]; doses of 0.01 to 10 mg/kg i.p.): markedly inhibits the nausea caused by the movement (travel sickness) | Number of episodes of nausea/vomiting ([2]; 0.001 mg/kg i.p.): 8.38 ± 1.41 (NS) | Number of episodes of nausea/vomiting ([2]; 0.01 mg/kg i.p.): 0.33 ± 0.21 (*) | Number of episodes of nausea/vomiting ([2]; 0.1 mg/kg i.p.): 2.17 ± 0.83 (*) | Number of episodes of nausea/vomiting ([2]; 1.0 mg/kg i.p.): 0.33 ± 0.21 (*) | Number of episodes of nausea/vomiting ([2]; 10.0 mg/kg i.p.): 0 ± 0 (*) | Ki [3]: 19.4 nM | ED50 [4]: 1.9 mg/kg | Number of episodes of nausea/vomiting ([5]; 0.001 mg/kg s.c.): 13.8 ± 2.4 (NS) | Number of episodes of nausea/vomiting ([5]; 0.01 mg/kg s.c.): 6.5 ± 3.1 (*) | Number of episodes of nausea/vomiting ([5]; 0.1 mg/kg s.c.): 3.1 ± 2.9 (*) | Number of episodes of nausea/vomiting ([5]; 1 mg/kg s.c.): 3.0 ± 2.0 (*) | Effect on nausea induced by cisplatin (in words) ([5]; s.c.): opposing the nausea induced by cisplatin | ED50 [6]: 9.7 mg/kg
